From ChEMBL document CHEMBL5321289, “Establishment of an MR1 Presentation Reporter Screening System and Identification of Phenylpropanoid Derivatives as MR1 Ligands” (J Med Chem, 2023) come the findings set out here.

Calls of active or inactive are those of the source. No cut-off for these calls is given here.

The test system of series [1] is HeLa. Briefly: Induction of cell surface translocation of MR1 in human HeLa overexpressing MR1 assessed as increase in MR1 cell surface levels at 10 uM incubated for 8 hrs followed by labeling with PE-conjugated anti-hMR1 antibody by flow cytometry analysis. Format: functional, cell-based. (In flow cytometry, cells or beads pass a laser one at a time.)
Series [2] deals with HeLa. Briefly: Induction of cell surface translocation of MR1 in human HeLa overexpressing MR1 assessed as increase in MR1 cell surface levels at 0.1 to 10 uM incubated for 8 hrs followed by labeling with PE-conjugated anti-hMR1 antibody by flow cytometry analysis. The conditions noted are these: dose 0.1-10 µM. Format: functional, cell-based.
Series [3] concerns TG40 cell. The series can be described thus: Activation of mouse TG40 cells transfected with MAIT-alpha/betaTCR co-cultured with human HeLa cells overexpressing human MR1 assessed as upregulation of CD69 surface expression […] at 10 uM incubated for 24 hrs by flow cytometry. The class given is functional, cell-based.
Series [4] is described as follows: Cytotoxicity against mouse TG40 cells transfected with MAIT-alpha/betaTCR assessed as reduction in cell viability at 30 to 100 uM incubated for 24 hrs by MTS assay. Format: toxicity, cell-based. The conditions noted are these: dose 30-100 µM. On the technique in general: Tetrazolium assays rely on reduction of a dye to a coloured formazan, in cell work by metabolically active cells.

Series [5] can be described thus: Cytotoxicity against mouse TG40 cells transfected with MAIT-alpha/betaTCR assessed as reduction in cell viability at 3 to 10 uM incubated for 24 hrs by MTS assay. The conditions noted are these: dose 3-10 µM. Format: toxicity, cell-based.
Series [6] deals with HeLa. Briefly: Cytotoxicity against human HeLa cells overexpressing MR1 assessed as reduction in cell viability at 3 to 100 uM incubated for 8 hrs by MTS assay. The conditions noted are these: dose 3-100 µM. Format: toxicity, cell-based.
Series [7] deals with HeLa. Briefly: Cytotoxicity against human HeLa cells overexpressing MR1 assessed as reduction in cell viability at 3 to 100 uM incubated for 24 hrs by MTS assay. The class given is toxicity, cell-based. The conditions noted are these: dose 3-100 µM.
The test system of series [8] is HeLa. Briefly: Effect on MR1-specific presentation in human HeLa overexpressing MR1 assessed as increase in HLA-A/B/C cell surface levels incubated for 8 hrs followed by labeling with PE-conjugated anti-hMR1 antibody and APC-conjugated anti-HLA-A/B/C antibody by flow cytometry analysis. Format: functional, cell-based.
Series [9] in a line: Induction of cell surface translocation of MR1 in human HeLa overexpressing MR1 assessed as increase in MR1 cell surface levels incubated for 8 hrs followed by labeling with PE-conjugated anti-hMR1 antibody by flow cytometry analysis. Format: functional, cell-based.
A short description of series [10]: Inhibition of 5-OR-RU induced activation of mouse TG40 cells transfected with MAIT-alpha/betaTCR co-cultured with human HeLa cells overexpressing human MR1 assessed as upregulation of CD69 surface expression […] incubated for 24 hrs by flow cytometry. The class given is functional, cell-based. Particulars: TG40 cell.
The test system of series [11] is HEK293. Briefly: Induction of cell surface translocation of MR1 in human HEK293 cells expressing N-terminal HiBit-tagged human beta2m/MR1 assessed as increase in MR1 cell surface expression level at 10 uM incubated for 8 hrs followed by labeling with PE-conjugated anti-hMR1 antibody by flow cytometry analysis. The class given is functional, cell-based. On the technique in general: With HiBiT, luminescence reflects the tagged protein that the partner subunit can reach.

Series [12] deals with TG40 cell. The series can be described thus: Activation of mouse TG40 cells transfected with MAIT-alpha/betaTCR co-cultured with human […] expressing N-terminal HiBit-tagged human beta2m/MR1 assessed as upregulation of CD69 surface expression […] at 1 uM incubated for 24 hrs by flow cytometry. Format: functional, cell-based.
Series [13] concerns TG40 cell. The series can be described thus: Activation of mouse TG40 cells transfected with MAIT-alpha/betaTCR co-cultured with human HEK293 cells expressing N-terminal HiBit-tagged human beta2m/MR1 assessed as upregulation of CD69 surface expression on TG40 cells at 1 uM incubated for 24 hrs by flow cytometry. Format: functional, cell-based.
In series [14] the test system is TG40 cell. Briefly: Activation of mouse TG40 cells transfected with MAIT-alpha/betaTCR co-cultured with human HEK293 cells expressing N-terminal HiBit-tagged human beta2m/MR1 assessed as upregulation of CD69 surface expression on TG40 cells at 10 uM incubated for 24 hrs by flow cytometry. The class given is functional, cell-based.

As for `CN(C)c1cc(/C=C/C=O)ccc1O`, in series [1], the result was inactive.
With `COc1cc(/C=C/C=O)cc(OC)c1O`, the outcome in [1] was inactive.
As to `O=Cc1ccccc1C#C/C=C/CO`, in series [2], the Activity result was “Dose-Dependent Effect”. The outcome in series [3] was inactive.
As for `O=C/C=C/c1ccc(O)cc1`, in [1], the outcome was inactive.
By EC50 is commonly meant the concentration giving half of the maximal effect. Consider `O=C/C=C/c1ccc(O)c(O)c1` [CAFFEOYL ALDEHYDE], for which the Activity result in series [4] is “Toxic”; in series [5], “Non-Toxic”; in series [6], “Non-Toxic”; in series [7] it was “Non-Toxic”. For the same molecule, the outcome in series [3] and in [8] was inactive. Further, the outcome in [1] was Active. For the same molecule, in [9], the EC50 came to 2.58 µM.
Take `COc1cc(/C=C/C(C)=O)ccc1O`: the outcome in series [1] was inactive.
The term IC50 denotes the midpoint of a concentration-inhibition curve. Take `Nc1nc2ncc(C=O)nc2c(=O)[nH]1`: the Activity entry in [4] is on record as “Toxic”; in series [5], “Non-Toxic”; in [6], “Non-Toxic”; in series [7], “Non-Toxic”. Besides, the IC50 in [10] was found to be 0.505 µM. In addition, the EC50 in series [9] turned out to be 1.63 µM.
For the molecule `COc1cc(O)ccc1/C=C/C=O`, the Activity result in [4] is “Toxic”; in [5], “Non-Toxic”; in series [6], “Non-Toxic”; in series [7], “Non-Toxic”. Besides, the IC50 in series [10] came out at 7.93 µM. The outcome in series [3] and in [8] was inactive. In series [1], the outcome was Active. Besides, in [9], the EC50 turned out to be 5.27 µM.
For the molecule `COc1ccc(/C=C/C=O)cc1O`, the result in series [1] was inactive.
For the molecule `CCCCCC/C(C=O)=C\c1ccccc1`, the outcome in series [1] was inactive.
Take `COc1cc(/C=C/C=O)cc2c1OCO2`: in series [1], the result was inactive.
For the molecule `COc1cc(CCC=O)ccc1O`, in series [1], the outcome was inactive.
Regarding `COc1ccc(O)c(/C=C/C=O)c1`, in series [1], the result was inactive.
On to `COc1cc(/C=C/C=O)c(OC)cc1O`, for which the Activity result in [4] is “Toxic”; in series [5] it was “Non-Toxic”; in series [6], “Non-Toxic”; in series [7], “Non-Toxic”. Further, the IC50 in series [10] is 7.34 µM. Further, the outcome in [3] and in series [8] was inactive. In addition, in series [1], the result was Active. In [9], the EC50 came out at 3.89 µM.
With `O=C/C=C/c1ccccc1O`, the outcome in series [1] was inactive.
On to `CC(=O)/C=N/c1c(NC[C@H](O)[C@H](O)[C@H](O)CO)[nH]c(=O)[nH]c1=O`, for which the result in [11] and in series [13] was Active. For the same molecule, the result in series [12] was inactive.
As to `O=Cc1ccc(O)c(C(=O)O)c1`, in [11], the result was Active.
`O=CC1=Cc2ccc(O)cc2OC1`: the result in [1] was inactive.
For the molecule `COc1cc(C#C[Si](C)(C)C)c(C=O)cc1OC`, the Activity entry in [2] was “Dose-Dependent Effect”. Further, the outcome in series [3] was inactive.
The like results for `CC(C)(C)c1cc(C=O)c(O)c(C=O)c1` were, in that order, “Dose-Dependent Effect” and “inactive”.
As for `CC(C)=CCc1cc(/C=C/C=O)ccc1O`, the result in [1] was inactive.
The same measure, in the same setting: the entry for `COc1ccc(/C=C(\C)C=O)cc1` is “inactive”.
Consider `O=Cc1c(O)cccc1I`, for which, in [2], the Activity result is “Dose-Dependent Effect”. Besides, in [3], the result was inactive.
`Cc1ccc(/C=C/C=O)cc1`: the result in series [1] was inactive.
Turning to `COc1cc(/C=C/C(=O)O)ccc1O`, the result in [1] was inactive.
In the case of `COc1cc(/C=C/C#N)ccc1O`, the outcome in [1] was inactive.
Regarding `COCCOC(=O)/C(=C\c1cc(C(C)(C)C)c(O)c(C(C)(C)C)c1)C(C)=O`, the Activity result in series [2] is “Dose-Dependent Effect”. Further, the outcome in series [3] was inactive.
For the molecule `COc1cc(/C=C/C=O)ccc1O` [CONIFERYL ALDEHYDE], the Activity result was “Dose-Dependent Effect” in series [2]; “Toxic” in series [4]; “Non-Toxic” in series [5]; “Non-Toxic” in series [6]; “Non-Toxic” in series [7]. Also, the IC50 in series [10] was 11.6 µM. In addition, the result in [3] and in [8] was inactive. The EC50 in series [9] was 9.03 µM.
Take `COc1cc(/C=C/C=O)c(OC)c2c1OCO2`: the result in series [1] was inactive.
In the case of `COc1cc(/C=C/C=O)c[nH]c1=O`, the outcome in series [1] was inactive.
Take `COc1cc(I)c(C=O)cc1OC`: the Activity entry in [2] was “Dose-Dependent Effect”. Besides, in series [3], the outcome was inactive.
As for `COc1ccccc1/C=C/C=O`, the outcome in series [1] was inactive.
`CC(=O)Nc1nc(O)c2nc(C=O)cnc2n1`: the result in [14] and in series [8] was inactive. The Activity result is “Toxic” in [4], “Non-Toxic” in series [5], “Non-Toxic” in [6] and “Non-Toxic” in series [7]. The outcome in [11] was Active. Besides, the IC50 in series [10] is 0.017 µM. Further, the EC50 in series [9] came to 0.153 µM.
Regarding `O=C/C=C/c1ccccc1`, the result in series [1] was inactive.
Consider `COc1ccc(/C=C/C=O)cc1`, for which the outcome in [1] was inactive.
For `COc1cc(/C=C/C=C/C=O)ccc1O`, the outcome in [1] was inactive.
On to `COc1cccc(/C=C/C=O)c1`, for which the outcome in [1] was inactive.
In the case of `COc1cc(C=O)ccc1O`, in series [1], the result was inactive.
